{
  "source": "patent US20230084927A1",
  "about": "“GLUCOSE UPTAKE INHIBITORS AND USES THEREOF” (METABOMED LTD., priority 2019, published 2023)",
  "type_in_all_cases": "cell-based",
  "key": {"[1]": {"test_system": "m+3 lactate secretion (glycolysis) in SDH-KO cells", "test": "Glycolysis inhibition (IC50 Lactate m+3)", "details": "1 h, 25 mM 13C-glucose, one hour", "method": "(§1) Glycolysis Inhibition (IC50 Lactate m+3)\n(§2) Cell were plated in DMEM, 25 mM Glucose, 1 mM Pyruvate, 1 mM Glutamine and 10% Dialyzed serum in 96 well plates in triplicates. The day after the medium was replaced to fresh medium with 25 mM ^13C-glucose and treated with different concentrations of the compounds as indicated. One hour later the medium was collected and the level of m+3 lactate was determined by LC-MS. The IC50 of inhibition of m+3 lactate secretion into the medium was calculated with Prism."}, "[2]": {"test_system": "m+3 lactate secretion (glycolysis) in SDH-WT cells", "test": "Glycolysis inhibition (IC50 Lactate m+3)", "details": "1 h, 25 mM 13C-glucose, one hour", "method": "as §1, §2"}, "[3]": {"test_system": "SDH-WT, Murine HRAS-transformed cells", "test": "Toxicity assay with or without rotenone", "details": "Mus musculus, 72 hours", "method": "(§3) Toxicity assay: Cells were growing in 96 well plates in DMEM F12 with 17 mM glucose, 0.5 mM Sodium Pyruvate, 1 mM Glutamine and 3% FBS. The cells were treated with the indicated compounds (10 different concentrations) with or without 25 nM rotenone. Viability was determined after 72 hours of treatment using CellTiter Glo reagent (Promega). EC50 was calculated using Prism software."}, "OV-90 (Ovarian cancer)": {"test_system": "OV-90 (Ovarian cancer)", "test": "Toxicity assay with or without rotenone", "details": "Homo sapiens, 72 hours", "method": "as §3"}, "[4]": {"test_system": "SDH-KO, Murine HRAS-transformed, SDHB-deficient cells", "test": "Toxicity assay with or without rotenone", "details": "Mus musculus, 72 hours", "method": "as §3"}, "[5]": {"test_system": "THP1 (Acute Monocytic Leukemia)", "test": "Toxicity assay with or without rotenone", "details": "Homo sapiens, THP-1, 72 hours", "method": "as §3"}, "[6]": {"details": "with 25 nM rotenone, read-out: EC50 (nM) with Rotenone"}, "[7]": {"details": "without rotenone, read-out: EC50"}},
  "note": "Where two headings read alike, the source gives them in different places.",
  "data": [
    {"smiles": "CC1(C)Cc2nc3sc4c(NCCc5ccc6[nH]cnc6c5)ncnc4c3cc2CO1", "note": "[Compound 145]", "values": [
      {"measurement": "IC50", "setting": "[1]", "result": 6.1, "unit": "nM"},
      {"measurement": "IC50", "setting": "[2]", "result": 1.7, "unit": "nM"},
      {"measurement": "EC50", "setting": "[3]; [6]", "result": 3, "unit": "nM"},
      {"measurement": "EC50", "setting": "[3]; [7]", "result": 210, "unit": "nM"},
      {"measurement": "EC50", "setting": "OV-90 (Ovarian cancer); OV-90, with 25 nM rotenone, read-out: EC50 (nM) with Rotenone", "result": 15, "unit": "nM"},
      {"measurement": "EC50", "setting": "OV-90 (Ovarian cancer); OV-90, without rotenone, read-out: EC50", "result": 825, "unit": "nM"},
      {"measurement": "EC50", "setting": "[4]; [6]", "result": 3, "unit": "nM"},
      {"measurement": "EC50", "setting": "[4]; [7]", "result": 3, "unit": "nM"},
      {"measurement": "EC50", "setting": "[5]; THP1, with 25 nM rotenone, read-out: EC50 (nM) with Rotenone", "result": 16, "unit": "nM"},
      {"measurement": "EC50", "setting": "[5]; THP1, without rotenone, read-out: EC50", "result": 1100, "unit": "nM"}
    ]}
  ]
}
